Measurements: ChEMBL document CHEMBL1201862, “PubChem BioAssay data set” (2004)
Values belong to the compound of their own block, whether it stands above or below them. Activity calls are given as the source filed them.

How the values were obtained:
[1] = biological target: T1, Histone-lysine N-methyltransferase NSD2 (Homo sapiens, UniProt O96028); format: biochemical
T1 sequence (O96028 whole entry): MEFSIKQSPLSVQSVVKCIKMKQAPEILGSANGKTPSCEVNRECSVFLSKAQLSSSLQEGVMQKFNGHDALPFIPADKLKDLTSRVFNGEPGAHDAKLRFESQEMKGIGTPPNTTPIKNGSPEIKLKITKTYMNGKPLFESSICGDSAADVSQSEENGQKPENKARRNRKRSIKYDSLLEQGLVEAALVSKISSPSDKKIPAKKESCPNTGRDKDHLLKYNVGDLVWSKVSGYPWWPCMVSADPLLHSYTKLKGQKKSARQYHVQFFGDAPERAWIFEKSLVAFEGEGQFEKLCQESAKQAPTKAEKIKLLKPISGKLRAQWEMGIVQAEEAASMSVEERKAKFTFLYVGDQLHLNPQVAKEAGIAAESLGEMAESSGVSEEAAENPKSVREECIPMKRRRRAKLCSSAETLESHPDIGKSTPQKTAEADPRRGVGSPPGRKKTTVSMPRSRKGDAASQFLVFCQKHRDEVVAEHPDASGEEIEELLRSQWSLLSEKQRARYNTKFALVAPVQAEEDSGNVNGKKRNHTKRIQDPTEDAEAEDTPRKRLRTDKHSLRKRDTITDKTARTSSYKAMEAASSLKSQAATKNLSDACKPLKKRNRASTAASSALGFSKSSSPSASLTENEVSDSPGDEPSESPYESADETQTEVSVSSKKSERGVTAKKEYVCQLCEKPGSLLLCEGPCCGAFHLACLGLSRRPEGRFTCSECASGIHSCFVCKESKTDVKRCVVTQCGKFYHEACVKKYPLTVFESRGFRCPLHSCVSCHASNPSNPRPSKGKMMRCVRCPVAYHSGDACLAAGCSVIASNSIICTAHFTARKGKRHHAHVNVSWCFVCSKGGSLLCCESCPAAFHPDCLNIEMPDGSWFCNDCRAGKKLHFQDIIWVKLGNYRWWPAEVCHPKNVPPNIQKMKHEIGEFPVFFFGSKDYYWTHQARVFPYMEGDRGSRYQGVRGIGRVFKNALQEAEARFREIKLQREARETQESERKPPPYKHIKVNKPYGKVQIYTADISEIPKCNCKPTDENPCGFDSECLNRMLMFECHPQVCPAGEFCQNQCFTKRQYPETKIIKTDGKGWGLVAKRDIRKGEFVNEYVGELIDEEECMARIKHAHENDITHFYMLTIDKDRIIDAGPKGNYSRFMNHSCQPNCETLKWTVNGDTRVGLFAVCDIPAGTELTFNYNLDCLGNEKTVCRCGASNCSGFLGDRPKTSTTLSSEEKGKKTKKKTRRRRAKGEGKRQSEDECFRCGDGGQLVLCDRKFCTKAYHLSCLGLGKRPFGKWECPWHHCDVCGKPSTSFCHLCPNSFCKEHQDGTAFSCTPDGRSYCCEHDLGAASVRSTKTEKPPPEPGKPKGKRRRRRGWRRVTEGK

[2] = biological target: T2, Sentrin-specific protease 7 (Homo sapiens, UniProt Q9BQF6); assay: inhibition of human SENP7 cleavage activity – biochemical, luminescence, SAR follow-up (AID 504497); format: functional
T2 sequence (Q9BQF6 whole entry): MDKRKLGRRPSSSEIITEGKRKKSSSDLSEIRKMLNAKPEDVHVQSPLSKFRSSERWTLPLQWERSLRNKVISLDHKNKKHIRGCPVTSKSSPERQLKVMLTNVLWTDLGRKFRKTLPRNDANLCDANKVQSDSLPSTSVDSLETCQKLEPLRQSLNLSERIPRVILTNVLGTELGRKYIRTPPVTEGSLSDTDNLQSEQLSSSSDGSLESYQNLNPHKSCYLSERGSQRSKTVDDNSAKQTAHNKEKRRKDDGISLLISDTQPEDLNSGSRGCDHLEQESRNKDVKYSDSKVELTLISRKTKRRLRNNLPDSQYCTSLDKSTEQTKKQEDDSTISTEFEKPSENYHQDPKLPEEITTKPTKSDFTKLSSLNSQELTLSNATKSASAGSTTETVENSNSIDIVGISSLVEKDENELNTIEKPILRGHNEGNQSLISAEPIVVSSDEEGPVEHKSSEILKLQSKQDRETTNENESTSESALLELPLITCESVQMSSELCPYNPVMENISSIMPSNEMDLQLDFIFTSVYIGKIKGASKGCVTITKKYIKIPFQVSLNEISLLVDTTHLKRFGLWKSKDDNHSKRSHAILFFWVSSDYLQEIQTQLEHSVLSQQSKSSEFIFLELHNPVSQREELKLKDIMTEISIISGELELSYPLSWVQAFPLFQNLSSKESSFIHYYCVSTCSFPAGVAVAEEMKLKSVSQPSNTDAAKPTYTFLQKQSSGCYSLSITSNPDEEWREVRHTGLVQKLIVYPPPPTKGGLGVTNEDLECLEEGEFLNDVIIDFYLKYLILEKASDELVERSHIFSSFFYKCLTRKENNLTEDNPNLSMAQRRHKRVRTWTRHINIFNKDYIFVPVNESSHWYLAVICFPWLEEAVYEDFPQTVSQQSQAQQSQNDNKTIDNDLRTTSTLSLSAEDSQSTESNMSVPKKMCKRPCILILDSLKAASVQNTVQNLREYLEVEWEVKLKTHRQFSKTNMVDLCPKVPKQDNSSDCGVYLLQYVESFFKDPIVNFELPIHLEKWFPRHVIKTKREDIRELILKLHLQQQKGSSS

[3] = Counterscreen for AddAB inhibitors: absorbance-based bacterial cell-based high throughput dose response assay for inhibitors of bacterial viability. [Related pubchem assays (depositor defined):AID435030, AID449728, AID449731, AID488942, AID488955, AID488956]; format: functional
[4] = biological target: Cyclin-dependent kinase 8 (Homo sapiens, UniProt P49336); assay: Navigating the Kinome. Panel member name: CDK8; format: functional
Cyclin-dependent kinase 8, sequence (P49336 whole entry): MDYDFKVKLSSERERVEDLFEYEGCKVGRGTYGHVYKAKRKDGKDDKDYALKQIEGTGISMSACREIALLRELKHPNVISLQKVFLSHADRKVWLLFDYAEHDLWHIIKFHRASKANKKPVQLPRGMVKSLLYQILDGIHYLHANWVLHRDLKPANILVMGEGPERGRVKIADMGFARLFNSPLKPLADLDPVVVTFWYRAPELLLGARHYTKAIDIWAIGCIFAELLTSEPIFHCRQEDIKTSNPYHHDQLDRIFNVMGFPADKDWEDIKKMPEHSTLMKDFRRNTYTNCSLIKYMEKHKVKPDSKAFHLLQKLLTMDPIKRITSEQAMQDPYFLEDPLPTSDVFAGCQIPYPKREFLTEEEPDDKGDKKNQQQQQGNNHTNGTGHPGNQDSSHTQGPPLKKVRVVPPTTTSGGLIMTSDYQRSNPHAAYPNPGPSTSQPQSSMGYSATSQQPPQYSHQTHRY

[5] = biological target: Testis-specific serine/threonine-protein kinase 1 (Homo sapiens, UniProt Q9BXA7); format: functional
Testis-specific serine/threonine-protein kinase 1, sequence (Q9BXA7 whole entry): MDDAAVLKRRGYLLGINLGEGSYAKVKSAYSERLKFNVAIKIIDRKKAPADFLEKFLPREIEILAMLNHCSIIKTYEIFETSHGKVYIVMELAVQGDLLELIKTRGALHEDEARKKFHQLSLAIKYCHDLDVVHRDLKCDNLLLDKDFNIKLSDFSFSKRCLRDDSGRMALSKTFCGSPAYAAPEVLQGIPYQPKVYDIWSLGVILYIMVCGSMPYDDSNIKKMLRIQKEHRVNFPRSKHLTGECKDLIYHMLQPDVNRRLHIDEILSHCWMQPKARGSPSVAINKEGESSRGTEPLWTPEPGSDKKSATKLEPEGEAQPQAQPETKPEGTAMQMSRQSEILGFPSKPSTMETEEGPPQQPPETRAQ

[6] = biological target: Insulin receptor (Homo sapiens, UniProt P06213); format: functional;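 note: insulin receptor kinase tested as one member of a kinome-wide kinase panel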
Insulin receptor, sequence (P06213 28-758 limits assumed): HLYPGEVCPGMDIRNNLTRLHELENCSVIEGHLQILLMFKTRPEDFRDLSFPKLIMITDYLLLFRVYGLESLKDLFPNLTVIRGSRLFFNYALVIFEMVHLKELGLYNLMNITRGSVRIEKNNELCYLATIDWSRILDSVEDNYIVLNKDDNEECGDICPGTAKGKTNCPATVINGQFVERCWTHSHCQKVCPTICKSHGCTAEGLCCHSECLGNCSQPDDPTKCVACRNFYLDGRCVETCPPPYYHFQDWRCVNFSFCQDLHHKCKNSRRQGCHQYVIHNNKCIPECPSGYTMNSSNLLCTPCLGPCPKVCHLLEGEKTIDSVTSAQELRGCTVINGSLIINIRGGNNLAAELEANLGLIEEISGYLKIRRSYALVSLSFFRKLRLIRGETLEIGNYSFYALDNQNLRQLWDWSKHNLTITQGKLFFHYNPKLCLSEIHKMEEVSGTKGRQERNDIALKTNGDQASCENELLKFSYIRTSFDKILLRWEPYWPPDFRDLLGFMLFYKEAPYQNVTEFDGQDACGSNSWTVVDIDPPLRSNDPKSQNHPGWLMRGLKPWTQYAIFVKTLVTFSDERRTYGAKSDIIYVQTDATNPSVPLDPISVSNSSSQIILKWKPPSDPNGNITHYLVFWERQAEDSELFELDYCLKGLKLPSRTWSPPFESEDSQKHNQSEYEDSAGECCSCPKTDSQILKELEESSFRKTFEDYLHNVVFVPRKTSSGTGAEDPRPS
Insulin receptor, sequence (P06213 763-1382 limits assumed): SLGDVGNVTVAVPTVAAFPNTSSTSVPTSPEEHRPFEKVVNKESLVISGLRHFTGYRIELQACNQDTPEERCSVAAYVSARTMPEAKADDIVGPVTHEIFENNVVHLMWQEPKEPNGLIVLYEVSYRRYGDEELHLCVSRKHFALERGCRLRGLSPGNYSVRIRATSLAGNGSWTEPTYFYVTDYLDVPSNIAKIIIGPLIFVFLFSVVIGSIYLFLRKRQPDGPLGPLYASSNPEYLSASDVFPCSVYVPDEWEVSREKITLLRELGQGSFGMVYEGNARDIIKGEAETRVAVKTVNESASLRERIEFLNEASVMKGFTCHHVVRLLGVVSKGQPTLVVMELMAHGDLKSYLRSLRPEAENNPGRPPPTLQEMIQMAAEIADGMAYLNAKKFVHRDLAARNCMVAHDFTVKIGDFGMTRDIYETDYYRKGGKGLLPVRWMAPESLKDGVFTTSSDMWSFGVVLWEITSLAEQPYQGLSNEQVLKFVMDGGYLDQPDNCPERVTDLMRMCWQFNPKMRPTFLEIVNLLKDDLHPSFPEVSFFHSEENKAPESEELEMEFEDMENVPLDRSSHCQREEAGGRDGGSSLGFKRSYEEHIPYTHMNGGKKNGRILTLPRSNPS

[7] = biological target: Hepatocyte growth factor receptor (Homo sapiens, UniProt P08581); format: functional;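 note: kinase panel profiling across the kinome, with MET as the panel member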
Hepatocyte growth factor receptor, sequence (P08581 whole entry): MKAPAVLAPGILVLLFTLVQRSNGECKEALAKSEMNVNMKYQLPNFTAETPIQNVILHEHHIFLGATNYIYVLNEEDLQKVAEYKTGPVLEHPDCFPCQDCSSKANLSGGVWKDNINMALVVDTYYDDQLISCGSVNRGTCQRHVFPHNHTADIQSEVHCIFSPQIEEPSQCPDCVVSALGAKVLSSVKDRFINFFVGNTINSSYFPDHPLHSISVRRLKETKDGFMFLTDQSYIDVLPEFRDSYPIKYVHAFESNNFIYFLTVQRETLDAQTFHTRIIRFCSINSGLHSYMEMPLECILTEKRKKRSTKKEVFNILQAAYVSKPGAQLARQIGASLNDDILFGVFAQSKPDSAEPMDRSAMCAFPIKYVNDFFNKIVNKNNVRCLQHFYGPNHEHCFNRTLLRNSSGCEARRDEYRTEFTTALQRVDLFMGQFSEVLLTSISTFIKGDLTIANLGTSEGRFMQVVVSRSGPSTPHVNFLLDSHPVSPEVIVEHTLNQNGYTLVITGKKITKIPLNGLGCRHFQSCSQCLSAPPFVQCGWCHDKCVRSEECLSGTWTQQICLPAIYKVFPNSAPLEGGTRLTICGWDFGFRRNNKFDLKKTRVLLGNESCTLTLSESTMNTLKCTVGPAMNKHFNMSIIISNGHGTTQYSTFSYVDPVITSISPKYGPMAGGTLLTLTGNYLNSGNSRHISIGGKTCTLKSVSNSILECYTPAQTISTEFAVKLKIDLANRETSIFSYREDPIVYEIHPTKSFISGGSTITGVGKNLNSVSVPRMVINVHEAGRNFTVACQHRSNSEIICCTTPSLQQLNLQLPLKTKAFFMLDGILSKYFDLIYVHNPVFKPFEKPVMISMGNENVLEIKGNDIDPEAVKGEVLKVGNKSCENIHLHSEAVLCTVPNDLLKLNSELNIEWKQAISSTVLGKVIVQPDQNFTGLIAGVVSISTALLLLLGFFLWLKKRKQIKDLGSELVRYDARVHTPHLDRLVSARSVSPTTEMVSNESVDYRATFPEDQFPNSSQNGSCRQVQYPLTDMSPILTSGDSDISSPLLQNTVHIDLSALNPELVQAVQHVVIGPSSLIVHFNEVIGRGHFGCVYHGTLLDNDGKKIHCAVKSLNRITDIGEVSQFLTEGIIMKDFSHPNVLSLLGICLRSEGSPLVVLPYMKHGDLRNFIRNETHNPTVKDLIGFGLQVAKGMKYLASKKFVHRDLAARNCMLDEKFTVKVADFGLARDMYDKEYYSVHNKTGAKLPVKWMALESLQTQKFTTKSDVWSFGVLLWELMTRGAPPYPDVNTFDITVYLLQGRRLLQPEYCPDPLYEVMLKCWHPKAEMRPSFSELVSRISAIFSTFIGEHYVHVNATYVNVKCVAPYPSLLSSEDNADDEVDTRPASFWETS

Compound: O=C1C=C(N2CCCCC2)c2ccccc2C1=O
AC50 [1]: 1.11 µM (active)

Compound: O=C(CCc1ccccc1)NNc1cc(N2CCCCC2)nc(N2CCCCC2)n1
IC50 [2]: 57.9 µM (active)

Compound: Oc1ccc(N=Nc2c(O)ccc3ccccc23)cc1
IC50 [3]: > 118 µM (inactive)

Ki [4]: 0.00158 µM (active)
pKi [4]: 8.8
Ki [5]: 0.1 µM (active)
Ki [6]: 3.16 µM (active)
Ki [7]: > 3.16 µM (inactive)
Compound: Cc1n[nH]c2ccc(-c3cncc(OCC(N)Cc4cccc(Cl)c4)c3)cc12 (stereo not drawn)
